Test results as given in patent publication US8481028B2, “Compositions for preparing a coffee beverage comprising hydrolysed chlorogenic acid” (Nestec S.A., priority 2008, dated 2013).

Tests used:
[1] = test system: Lactobacillus johnsonii (CNCM I-1225) extract (lysed cells); experiment: Treatment of NESCAFE PROTECT with L. johnsonii extract (lysed cells), HPLC; type: biochemical
Description: Cells of L. johnsonii (CNCM I-1225) were grown (7.0 E08 cfu/ml) and centrifuged (5000 g, 10 min), the pellets were resuspended in phosphate buffer (50 mM, pH 7.0) at a concentration of 0.61 g/ml. The cells were then lysed using the glass-beads method. 600 μl of cells preparation were put in screw-cap tubes and 600 μl of glass-beads were added at 0° C. The tubes were then put into a Mini-Beadbeater for 1 min of intense shaking, cooled in ice, and put another 1 min in the Mini-Beadbeater. […] Samples were withdrawn at different reaction times, centrifuged (3000 g, 5 min), filtered through 0.45 μm pore size syringe filters (Millipore SLHA 025 BS) and analysed by HPLC.
(§1) Coffee samples were diluted to 1% w/w and analyzed by RP-HPLC on a CC 250/4 Nucleosil 100-5-C18 column (Macherey-Nagel). The eluent system was Millipore water, 0.1% TFA and CH3CN at a flow rate of 1 mL/min. The method allowed the simultaneous determination of caffeoyl quinic acids (CQA), feruloyl quinic acids (FQA), di-caffeoyl quinic acids (diCQA), feruloyl quinic acid-lactones, caffeic acid (CA) and ferulic acid (FA) (absorbance at 325 nm) using external standard calibration curves. Results were expressed relative to the reference at time 0 (t0) or to the reference at the same time without bacteria.

Chlorogenate esterase = experiment: Incubation of coffee extracts with chlorogenate esterase, HPLC; type: biochemical, Aspergillus japonicus
Description: as §1
Chlorogenate esterase (24 U/g), derived from Aspergillus japonicus (Kikkoman, Japan). Tannase from Aspergillus oryzae (Kikkoman, Japan) Preparation of Bacteria Cells
A solution of chlorogenate esterase (25 mg) in 200 μl phosphate buffer (pH 7.0) was added to 800 μl of a coffee solution (3%). The mixture was then incubated at 37° C. for 4 h, 16 h and 24 h. After reaction time, the enzymatic activity was stopped by heat treatment (3 min, 90° C.) and the mixture was filtered before analysis.

[2] = test system: Lactobacillus johnsonii (CNCM I-1225); experiment: Treatment of coffee extracts with bacteria cells (L. johnsonii), HPLC
Description: as §1
(§2) Tested strains were harvested (centrifugation at 5000 g for 10 min) after having well reached stationary phase, corresponding to 16 hours of incubation in culture medium at 37° C. in anaerobic atmosphere without agitation. For a first activation of the strains, frozen stock cultures were inoculated in fresh media and grown overnight. This pre-culture was used to inoculate the culture.
(§3) After culture of bacteria and centrifugation, the pellets were resuspended in phosphate buffer (pH 7.0) at a concentration of 0.61 g/ml. To 200 μl of this cells preparation, 800 μl of a coffee solution (3%) was added and the mixture was incubated at 37° C. for 4 h, 16 h and 24 h.

[3] = test system: Bifidobacterium lactis BB12 (CNCM I-3446); experiment: Treatment of coffee extracts with bacteria cells (B. lactis), HPLC
Description: as §1, §2, §3

[4] = test system: Lactobacillus johnsonii (CNCM I-1225) fresh cells; experiment: Treatment of NESCAFE PROTECT with L. johnsonii fresh cells, HPLC of chlorogenic and phenolic acids
Description: Cells of L. johnsonii (CNCM I-1225) were grown (7.0 E08 cfu/ml) and centrifuged (5000 g, 10 min), the pellets were resuspended in phosphate buffer (50 mM, pH 7.0) at a concentration of 0.61 g/ml. […] Samples were withdrawn at different reaction times, centrifuged (3000 g, 5 min) and filtered through 0.45 μm pore size syringe filters (Millipore SLHA 025 BS) and analysed by HPLC.
A reaction control was run in parallel under the same reaction conditions but without bacteria.
as §1

[5] = test system: concentrated preparation of Lactobacillus johnsonii (CNCM I-1225); experiment: Treatment of NESCAFE with concentrated preparation of L. johnsonii, HPLC
Description: 400 mg of NESCAFE SPECIAL FILTRE® (a dried extract of roasted coffee beans) were dissolved in 1 ml of boiling water and the solution was cooled to 37° C. at room temperature. To 250 μl of this coffee solution, different amounts of concentrated preparation of Lactobacillus johnsonii (50 μl, 100 μl, 350 μl, 750 μl) were added and the volume was adjusted to 1 ml with water. The mixtures were than incubated at 37° C. for 2 h and 4 h. After centrifugation (3000 g, 5 min) and filtration the samples were analysed by HPLC.
as §1

[6] = test system: spray-dried preparation of Lactobacillus johnsonii (CNCM I-1225); experiment: Treatment of green coffee extract with spray-dried preparation of L. johnsonii, HPLC
Description: 30 mg of a dried green coffee extract was dissolved in 1 ml phosphate buffer (50 mM, pH 7.0) or in 1 ml water. To this solution, 10 mg of a spray-dried preparation of Lactobacillus johnsonii (3.3 E9 cfu/g) was added. The mixture was then incubated at 37° C. and samples were withdrawn at different reaction times. After centrifugation (3000 g, 5 min) and filtration (0.45 μm pore size syringe filters, Millipore SLHA 025 BS) the samples were analysed by HPLC.
as §1

In the case of di-caffeoyl quinic acids [diCQA], the “Concentration in % relative to untreated reference at t = 0” value ([1]; 2 h, cell preparation 100.0 uL) is reported as 8%, the “Concentration in % relative to untreated reference at t = 0” value ([1]; 2 h, cell preparation 350.0 uL) is reported as 1% and the “Concentration in % relative to untreated reference at t = 0” value ([1]; 6 h, cell preparation 100.0 uL) is reported as 1%. The “Concentration in % relative to untreated reference at t = 0” value ([1]; 6 h, cell preparation 350.0 uL) was 1%, the “% relative to untreated control at t = 0” value (Chlorogenate esterase; NESCAFE PROTECT + Chlorogenate esterase, 4 h) was 0% and the “% relative to untreated control at t = 0” value (Chlorogenate esterase; NESCAFE PROTECT + Chlorogenate esterase, 16 h) was 0%. The “% relative to untreated control at t = 0” value (Chlorogenate esterase; NESCAFE PROTECT + Chlorogenate esterase, 24 h) was 1%, the “% relative to untreated control at t = 0” value (Chlorogenate esterase; green coffee extract + Chlorogenate esterase, 4 h) was 0% and the “% relative to untreated control at t = 0” value (Chlorogenate esterase; green coffee extract + Chlorogenate esterase, 16 h) was 0%. For the same substance, the “% relative to untreated control at t = 0” value (Chlorogenate esterase; green coffee extract + Chlorogenate esterase, 24 h) was 0%, the “% relative to untreated control at t = 0” value ([2]; NESCAFE PROTECT + Lactobacillus johnsonii, 4 h) was 18% and the “% relative to untreated control at t = 0” value ([2]; NESCAFE PROTECT + Lactobacillus johnsonii, 16 h) was 2%. The “% relative to untreated control at t = 0” value ([2]; NESCAFE PROTECT + Lactobacillus johnsonii, 24 h) was 2%, the “% relative to untreated control at t = 0” value ([2]; green coffee extract + Lactobacillus johnsonii, 4 h) was 35% and the “% relative to untreated control at t = 0” value ([2]; green coffee extract + Lactobacillus johnsonii, 16 h) was 6%. For the same substance, the “% relative to untreated control at t = 0” value ([2]; green coffee extract + Lactobacillus johnsonii, 24 h) was 3%, the “% relative to untreated control at t = 0” value ([3]; NESCAFE PROTECT + Bifidobacterium lactis, 4 h) was 91% and the “% relative to untreated control at t = 0” value ([3]; NESCAFE PROTECT + Bifidobacterium lactis, 16 h) was 72%. For the same substance, the “% relative to untreated control at t = 0” value ([3]; NESCAFE PROTECT + Bifidobacterium lactis, 24 h) was 67%, the “% relative to untreated control at t = 0” value ([3]; green coffee extract + Bifidobacterium lactis, 4 h) was 85% and the “% relative to untreated control at t = 0” value ([3]; green coffee extract + Bifidobacterium lactis, 16 h) was 70%. For the same substance, the “% relative to untreated control at t = 0” value ([3]; green coffee extract + Bifidobacterium lactis, 24 h) was 64%, the “Concentration in % relative to untreated reference at t = 0” value ([4]; 6 h, cell preparation 100 uL) was 23% and the “Concentration in % relative to untreated reference at t = 0” value ([4]; 6 h, cell preparation 350 uL) was 0%. For the same substance, the “Concentration in % relative to untreated reference at t = 0” value ([4]; 6 h, cell preparation 750 uL) was 0%, the “Concentration in % relative to untreated reference at t = 0” value ([4]; 24 h, cell preparation 100 uL) was 2% and the “Concentration in % relative to untreated reference at t = 0” value ([4]; 24 h, cell preparation 350 uL) was 0%. For the same substance, the “Concentration in % relative to untreated reference at t = 0” value ([4]; 24 h, cell preparation 750 uL) was 0%, the “% relative to untreated control at t = 0” value ([5]; cell amount 50 μL/1 mL, 2 h) was 86% and the “% relative to untreated control at t = 0” value ([5]; cell amount 50 μL/1 mL, 4 h) was 75%. For the same substance, the “% relative to untreated control at t = 0” value ([5]; cell amount 100 μL/1 mL, 2 h) was 68%, the “% relative to untreated control at t = 0” value ([5]; cell amount 100 μL/1 mL, 4 h) was 56% and the “% relative to untreated control at t = 0” value ([5]; cell amount 350 μL/1 mL, 2 h) was 23%. The “% relative to untreated control at t = 0” value ([5]; cell amount 350 μL/1 mL, 4 h) was 15%, the “% relative to untreated control at t = 0” value ([5]; cell amount 750 μL/1 mL, 2 h) was 6% and the “% relative to untreated control at t = 0” value ([5]; cell amount 750 μL/1 mL, 4 h) was 6%. For the same substance, the “% relative to untreated control at t = 0” value ([6]; 4 h) was 67%, the “% relative to untreated control at t = 0” value ([6]; 6 h) was 53% and the “% relative to untreated control at t = 0” value ([6]; 16 h) was 32%. For the same substance, the “% relative to untreated control at t = 0” value ([6]; 24 h) was 20%.
